Experimental data: ChEMBL document CHEMBL1201861, “Genomics of Drug Sensitity in Cancer screening data, Wellcome Trust Sanger Institute”

Assays:
VM-CUB-1 = test: cells; format: functional, cell-based; conditions: Homo sapiens;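 note: cell viability assay measuring growth inhibition of the human VM-CUB-1 cell line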
Description: SANGER: Inhibition of human VM-CUB-1 cell growth in a cell viability assay.

CP66-MEL = test: cells; format: functional, cell-based; conditions: Homo sapiens;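 note: growth inhibition of CP66-MEL cells determined in a cell viability assay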
Description: SANGER: Inhibition of human CP66-MEL cell growth in a cell viability assay.

OVCAR-5 = test: cells; format: functional, cell-based; conditions: Homo sapiens;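 note: growth inhibition of human OVCAR-5 cells, read out with a cell viability assay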
Description: SANGER: Inhibition of human OVCAR-5 cell growth in a cell viability assay.

CaR-1 = test: cells; format: functional, cell-based; conditions: Homo sapiens;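 note: growth inhibition of human CaR-1 cancer cells, read out with a cell viability assay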
Description: SANGER: Inhibition of human CaR-1 cell growth in a cell viability assay.

IST-SL2 = test: cells; format: functional, cell-based, Homo sapiens; conditions: Homo sapiens, IST-SL2;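 note: growth inhibition of human IST-SL2 cells, read out by a cell viability assay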
Description: SANGER: Inhibition of human IST-SL2 cell growth in a cell viability assay.

NCI-H650 = test: cells; format: functional, cell-based; conditions: Homo sapiens;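 note: growth inhibition of NCI-H650 cells, read out by a viability assay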
Description: SANGER: Inhibition of human NCI-H650 cell growth in a cell viability assay.

LOUCY = test: cells; format: functional, cell-based, Homo sapiens; conditions: Homo sapiens, LOUCY;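 note: growth inhibition of human LOUCY cells, read out with a cell viability assay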
Description: SANGER: Inhibition of human LOUCY cell growth in a cell viability assay.

SW837 = test: cells; format: functional, cell-based; conditions: Homo sapiens;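 note: growth inhibition of SW837 cells, determined with a cell viability assay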
Description: SANGER: Inhibition of human SW837 cell growth in a cell viability assay.

IM-9 = test: SANGER: Inhibition of human IM-9 cell growth in a cell viability assay.; format: functional, cell-based; conditions: Homo sapiens, IM-9
A-375 = test: cells; format: functional, cell-based; conditions: Homo sapiens;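 note: growth inhibition of A375 cells, read out with a cell viability assay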
Description: SANGER: Inhibition of human A375 cell growth in a cell viability assay.

VMRC-RCZ = test: cells; format: functional, cell-based; conditions: Homo sapiens
Description: SANGER: Inhibition of human VMRC-RCZ cell growth in a cell viability assay.

NCI-H630 = test: cells; format: functional, cell-based; conditions: Homo sapiens;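 note: growth inhibition of NCI-H630 cells, read out with a cell viability assay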
Description: SANGER: Inhibition of human NCI-H630 cell growth in a cell viability assay.

SNU-16 = test: cells; format: functional, cell-based, Homo sapiens; conditions: Homo sapiens, SNU-16;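 note: growth inhibition of human SNU-16 cells, determined with a cell viability readout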
Description: SANGER: Inhibition of human NCI-SNU-16 cell growth in a cell viability assay.

HOP-92 = test: cells; format: functional, cell-based; conditions: Homo sapiens;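 note: cell viability readout, with IC50 reflecting inhibition of HOP-92 cell growth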
Description: SANGER: Inhibition of human HOP-92 cell growth in a cell viability assay.

DMS-79 = test: cells; format: functional, cell-based, Homo sapiens; conditions: Homo sapiens, DMS-79
Description: SANGER: Inhibition of human DMS-79 cell growth in a cell viability assay.

CAL-72 = test: cells; format: functional, cell-based; conditions: Homo sapiens;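 note: cell viability assay measuring inhibition of proliferation in the CAL-72 cell line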
Description: SANGER: Inhibition of human CAL-72 cell growth in a cell viability assay.

UACC-812 = test: cells; format: functional, cell-based; conditions: Homo sapiens
Description: SANGER: Inhibition of human UACC-812 cell growth in a cell viability assay.

HCC70 = test: cells; format: functional, cell-based; conditions: Homo sapiens;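 note: cell viability assay measuring how strongly the compound suppresses proliferation of HCC70 cells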
Description: SANGER: Inhibition of human HCC70 cell growth in a cell viability assay.

HCC1569 = test: cells; format: functional, cell-based; conditions: Homo sapiens;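 note: growth inhibition of human HCC1569 cells, read out with a cell viability assay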
Description: SANGER: Inhibition of human HCC1569 cell growth in a cell viability assay.

BHY = test: cells; format: functional, cell-based; conditions: Homo sapiens;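 note: cell growth inhibition read out by a viability assay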
Description: SANGER: Inhibition of human BHY cell growth in a cell viability assay.

OPM-2 = test: cells; format: functional, cell-based, Homo sapiens; conditions: Homo sapiens, OPM-2;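 note: growth of OPM-2 cells measured with a viability assay, IC50 for suppression of proliferation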
Description: SANGER: Inhibition of human OPM-2 cell growth in a cell viability assay.

MKN-28 = test: cells; format: functional, cell-based; conditions: Homo sapiens;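 note: cell viability assay read-out, IC50 reflects suppression of growth of human MKN-28 cells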
Description: SANGER: Inhibition of human MKN28 cell growth in a cell viability assay.

OE33 = test: cells; format: functional, cell-based; conditions: Homo sapiens;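 note: growth inhibition of human OE33 cells, measured by a cell viability assay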
Description: SANGER: Inhibition of human OE33 cell growth in a cell viability assay.

NCI-H441 = test: cells; format: functional, cell-based; conditions: Homo sapiens;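 note: growth inhibition of NCI-H441 cells, read out with a cell viability assay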
Description: SANGER: Inhibition of human NCI-H441 cell growth in a cell viability assay.

NCI-H2009 = test: cells; format: functional, cell-based; conditions: Homo sapiens;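 note: cell viability assay measuring inhibition of NCI-H2009 cell growth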
Description: SANGER: Inhibition of human NCI-H2009 cell growth in a cell viability assay.

CAL-54 = test: cells; format: functional, cell-based; conditions: Homo sapiens;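 note: growth inhibition of CAL-54 cells, read out by a viability measurement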
Description: SANGER: Inhibition of human CAL-54 cell growth in a cell viability assay.

KYSE-520 cell line = test: cells; format: functional, cell-based; conditions: Homo sapiens;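 note: growth inhibition of human KYSE-520 cells, read out with a viability assay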
Description: SANGER: Inhibition of human KYSE-520 cell growth in a cell viability assay.

HuP-T3 = test: cells; format: functional, cell-based; conditions: Homo sapiens;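 note: HuP-T3 cell growth inhibition, read out with a cell viability assay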
Description: SANGER: Inhibition of human HuP-T3 cell growth in a cell viability assay.

RPMI-7951 = test: cells; format: functional, cell-based; conditions: Homo sapiens
Description: SANGER: Inhibition of human RPMI-7951 cell growth in a cell viability assay.

GP5d = test: cells; format: functional, cell-based; conditions: Homo sapiens;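 note: growth inhibition of human GP5d cells, read out with a cell viability assay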
Description: SANGER: Inhibition of human GP5d cell growth in a cell viability assay.

SF-295 = test: cells; format: functional, cell-based; conditions: Homo sapiens;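 note: growth inhibition of SF-295 cells, read out with a cell viability assay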
Description: SANGER: Inhibition of human SF295 cell growth in a cell viability assay.

HCC 2998 = test: cells; format: functional, cell-based; conditions: Homo sapiens;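 note: growth inhibition of human HCC2998 cells, measured with a cell viability read-out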
Description: SANGER: Inhibition of human HCC2998 cell growth in a cell viability assay.

MFE-280 = test: cells; format: functional, cell-based; conditions: Homo sapiens;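 note: growth inhibition of MFE-280 cells, determined with a cell viability readout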
Description: SANGER: Inhibition of human MFE-280 cell growth in a cell viability assay.

SW-620 = test: cells; format: functional, cell-based; conditions: Homo sapiens;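 note: growth inhibition of human SW-620 cells, measured by a cell viability assay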
Description: SANGER: Inhibition of human SW620 cell growth in a cell viability assay.

J82 = test: cells; format: functional, cell-based; conditions: Homo sapiens;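 note: growth inhibition of J82 cells, read out with a cell viability assay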
Description: SANGER: Inhibition of human J82 cell growth in a cell viability assay.

PANC-08-13 = test: cells; format: functional, cell-based; conditions: Homo sapiens
Description: SANGER: Inhibition of human PANC-08-13 cell growth in a cell viability assay.

T47D = test: cells; format: functional, cell-based; conditions: Homo sapiens;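 note: growth inhibition of human T47D cells, measured with a cell viability assay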
Description: SANGER: Inhibition of human T47D cell growth in a cell viability assay.

LK-2 = test: cells; format: functional, cell-based; conditions: Homo sapiens;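 note: growth inhibition of LK-2 cells, read out with a viability assay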
Description: SANGER: Inhibition of human LK-2 cell growth in a cell viability assay.

SAS = test: cells; format: functional, cell-based; conditions: Homo sapiens;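 note: growth inhibition of SAS cells, read out with a cell viability assay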
Description: SANGER: Inhibition of human SAS cell growth in a cell viability assay.

CAL-51 = test: cells; format: functional, cell-based; conditions: Homo sapiens;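 note: human CAL-51 cell line, growth inhibition read out via a cell viability assay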
Description: SANGER: Inhibition of human CAL-51 cell growth in a cell viability assay.

Daoy = test: cells; format: functional, cell-based; conditions: Homo sapiens;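 note: daoy cell growth inhibition, read out as cell viability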
Description: SANGER: Inhibition of human Daoy cell growth in a cell viability assay.

SUP-T1 = test: cells; format: functional, cell-based, Homo sapiens; conditions: Homo sapiens, SUP-T1;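 note: growth inhibition of human SUP-T1 cells, read out as cell viability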
Description: SANGER: Inhibition of human SUP-T1 cell growth in a cell viability assay.

NCI-H719 = test: cells; format: functional, cell-based, Homo sapiens; conditions: Homo sapiens, NCI-H719;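 note: growth inhibition of the cultured cell line, read out with a viability assay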
Description: SANGER: Inhibition of human NCI-H719 cell growth in a cell viability assay.

CPC-N = test: cells; format: functional, cell-based, Homo sapiens; conditions: Homo sapiens, CPC-N;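 note: growth inhibition of CPC-N cells, with a cell viability assay as the readout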
Description: SANGER: Inhibition of human CPC-N cell growth in a cell viability assay.

NCI-H187 = test: cells; format: functional, cell-based, Homo sapiens; conditions: Homo sapiens, NCI-H187;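 note: growth inhibition of NCI-H187 cells, read out as cell viability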
Description: SANGER: Inhibition of human NCI-H187 cell growth in a cell viability assay.

L-540 = test: cells; format: functional, cell-based, Homo sapiens; conditions: Homo sapiens, L-540;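 note: growth inhibition of the human L-540 cell line, read out with a viability assay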
Description: SANGER: Inhibition of human L-540 cell growth in a cell viability assay.

HuTu80 = test: cells; format: functional, cell-based, Homo sapiens, HUTU-80; conditions: Homo sapiens, HuTu80;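 note: growth inhibition of HuTu80 human cells, determined with a cell viability readout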
Description: SANGER: Inhibition of human HUTU-80 cell growth in a cell viability assay.

C32 = test: cells; format: functional, cell-based; conditions: Homo sapiens;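 note: cell viability assay, with IC50 reflecting inhibition of C32 cell growth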
Description: SANGER: Inhibition of human C32 cell growth in a cell viability assay.

SW780 = test: cells; format: functional, cell-based; conditions: Homo sapiens;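 note: growth inhibition of the cells, read out with a cell viability assay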
Description: SANGER: Inhibition of human SW780 cell growth in a cell viability assay.

NCI-H292 = test: cells; format: functional, cell-based; conditions: Homo sapiens;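 note: growth inhibition of NCI-H292 cells, read out with a cell viability assay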
Description: SANGER: Inhibition of human NCI-H292 cell growth in a cell viability assay.

NCI-H520 = test: cells; format: functional, cell-based; conditions: Homo sapiens;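 note: growth inhibition of NCI-H520 cells, measured by a cell viability assay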
Description: SANGER: Inhibition of human NCI-H520 cell growth in a cell viability assay.

TYK-nu = test: cells; format: functional, cell-based; conditions: Homo sapiens;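 note: growth inhibition of human TYK-nu cells, read out by a cell viability assay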
Description: SANGER: Inhibition of human TYK-nu cell growth in a cell viability assay.

NCI-H2141 = test: cells; format: functional, cell-based, Homo sapiens; conditions: Homo sapiens, NCI-H2141;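 note: growth inhibition of human NCI-H2141 cells, read out with a cell viability assay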
Description: SANGER: Inhibition of human NCI-H2141 cell growth in a cell viability assay.

DU-145 = test: cells; format: functional, cell-based; conditions: Homo sapiens
Description: SANGER: Inhibition of human DU-145 cell growth in a cell viability assay.

RCM-1 = test: cells; format: functional, cell-based; conditions: Homo sapiens;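 note: growth inhibition of the RCM-1 line, determined with a cell viability readout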
Description: SANGER: Inhibition of human RCM-1 cell growth in a cell viability assay.

NCI-H1436 = test: cells; format: functional, cell-based, Homo sapiens; conditions: Homo sapiens, NCI-H1436;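 note: growth suppression of human NCI-H1436 cells, determined with a cell viability readout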
Description: SANGER: Inhibition of human NCI-H1436 cell growth in a cell viability assay.

647-V = test: cells; format: functional, cell-based; conditions: Homo sapiens
Description: SANGER: Inhibition of human 647-V cell growth in a cell viability assay.

HO-1-N-1 = test: cells; format: functional, cell-based; conditions: Homo sapiens
Description: SANGER: Inhibition of human HO-1-N-1 cell growth in a cell viability assay.

Measured: IC50

COC(=O)[C@H](CCSC)NC(=O)c1ccc(NC[C@@H](N)CS)cc1-c1ccccc1
> 1.02 µM: VM-CUB-1 | CP66-MEL | OVCAR-5 | CaR-1 | IST-SL2 | NCI-H650 | LOUCY | SW837 | IM-9 | A-375 | VMRC-RCZ | NCI-H630 | SNU-16 | HOP-92 | DMS-79 | CAL-72 | UACC-812 | HCC70 | HCC1569 | BHY | OPM-2 | MKN-28 | OE33 | NCI-H441 | NCI-H2009 | CAL-54 | KYSE-520 cell line | HuP-T3 | RPMI-7951 | GP5d | SF-295 | HCC 2998 | MFE-280 | SW-620 | J82 | PANC-08-13 | T47D | LK-2 | SAS | CAL-51 | Daoy | SUP-T1 | NCI-H719 | CPC-N | NCI-H187 | L-540 | HuTu80 | C32 | SW780 | NCI-H292 | NCI-H520 | TYK-nu | NCI-H2141 | DU-145 | RCM-1 | NCI-H1436 | 647-V | HO-1-N-1
